Measurements reported in patent US6037361A, “Fluorinated butyric acids and their derivatives as inhibitors of matrix metalloproteinases” (Warner-Lambert Company, priority 1998, dated 2000).

How the values were obtained:
[1] = test system: human ovarian carcinoma xenografts; details: mice bearing human ovarian carcinoma xenografts; cited from earlier work
[2] = biological target: GCD (recombinant gelatinase A catalytic domain); assay: IC50 versus GCD with thiopeptolide substrate Ac-Pro-Leu-Gly-thioester-Leu-Leu-Gly-OEt; assay type: biochemical
Protocol: (§1) Experiments were carried out with the catalytic domains of the proteinases. […] IC50 values were determined using a thiopeptolide substrate, Ac-Pro-Leu-Gly-thioester-Leu-Leu-Gly-OEt (Ye Q. -Z., Johnson L. L., Hupe D. J., and Baragi V., "Purification and Characterization of the Human Stromelysin Catalytic Domain Expressed in Escherichia coli", Biochemistry, 1992;31:11231-11235).

[3] = biological target: T1, SCD (stromelysin-1 catalytic domain) (Homo sapiens, UniProt P08254); assay: IC50 versus SCD with thiopeptolide substrate Ac-Pro-Leu-Gly-thioester-Leu-Leu-Gly-OEt; assay type: biochemical
T1 construct: SCD (stromelysin-1 catalytic domain); made in house; host or cells: Escherichia coli
Protocol: as §1

[4] = test system: bovine nasal and pig articular cartilage; details: bovine nasal and pig articular cartilage models for arthritis; cited from earlier work

T1 sequence (P08254 100-272 limits assumed): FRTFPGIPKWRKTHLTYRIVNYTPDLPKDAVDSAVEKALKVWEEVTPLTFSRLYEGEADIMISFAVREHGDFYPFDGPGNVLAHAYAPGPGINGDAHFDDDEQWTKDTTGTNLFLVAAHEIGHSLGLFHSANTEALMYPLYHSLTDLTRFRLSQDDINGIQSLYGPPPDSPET

Compound	tumor burden and survival [1]	IC50 [2] [µM]	IC50 [3] [µM]	formation of collagen fragments and proteoglycan fragments [4]
CNC(=O)[C@H](Cc1ccccc1)NC(=O)[C@H](CC(C)C)[C@H](CSc1cccs1)C(=O)NO [BB-94]	decreased the tumor burden and prolonged the survival	–	–	–
O=C(O)CC(F)(F)C(=O)c1ccc2oc3ccccc3c2c1 [Example 1, 4-Dibenzofuran-2-yl-3,3-difluoro-4-oxo-butyric acid]	–	1.95	24	–
O=C(CC(F)(F)C(=O)O)c1ccc2oc3ccccc3c2c1 [Example 2, 4-Dibenzofuran-2-yl-2,2-difluoro-4-oxo-butric acid]	–	93.6	> 100	–
TIMP-1: natural endogenous inhibitors of MMPs (TIMPs)	–	–	–	prevented the formation of collagen fragments, but not proteoglycan fragments
